# Measured values reported in patent US11464768B2, “Pimavanserin alone or in combination for use in the treatment of Alzheimer's disease psychosis” (ACADIA Pharmaceuticals Inc., priority 2016, dated 2022).
# How the values were obtained:
# [1] = system: hyperactivity induced by the N-methyl-D-aspartate antagonist MK-801; conditions: mice; effective in these models at oral doses of 3 and 10 mg/kg; cited from earlier work
# ADP patients [2] = test: Same twelve-week study: safety assessment (adverse events); format: in vivo, human; conditions: for tolerability and safety profile: 34 mg once daily for twelve weeks, 181 patients in safety assessment
# Procedure: Each patient participated in a 3-week screening period, a 12-week double-blind treatment period, and a 4-week follow-up period. The maximum duration of the study for each patient was approximately 19 weeks. Pimavanserin was administered in tablet form, once daily by mouth in 34 mg doses (2 tablets of 17 mg pimavanserin), equivalent to 40 mg pimavanserin tartrate. (2 tablets of 20 mg pimavanserin tartrate) Placebo was administered with visibly matching tablets, using the same route and regimen. The safety of subjects was assessed by monitoring adverse events, physical examinations, vital signs, clinical laboratory tests (hematology, clinical chemistry, and urinalysis), and electrocardiograms. Furthermore cognitive status was assessed via MMSE.
# The results of the study were obtained from a majority of the 181 patients, some of the patients were excluded from the endpoint results but all 181 patients were included in the safety assessment.
# [3] = system: DOI ((±)-2,5-dimethoxy-4-iodoamphetamine, a serotonin agonist) induced head twitches; conditions: rat; effective in these models at oral doses of 3 and 10 mg/kg; cited from earlier work
# ADP patients [4] = test: Same twelve-week study: cognitive status by Mini-Mental State Examination (MMSE); format: in vivo, human; conditions: 34 mg once daily; 12 week study
# Procedure: In some embodiments the effect of the treatment is an antipsychotic effect, for example determined by an improved patient score in the Neuropsychiatric Inventory-Nursing Home Version (NPI-NH) psychosis scale, without impairing cognition, as determined by Mini-Mental State Examiner (MMSE) score. In some embodiment the antipsychotic effect without impairing cognition is determined over the 12 weeks of treatment. The MMSE is a brief 30-point questionnaire that is used to quantitatively assess cognition (Folstein et al., Journal of Psychiatric Research. 12 (3): 189-98, 1975). The MMSE test includes simple questions and problems in a number of areas: the time and place of the test, repeating lists of words, arithmetic, language use and comprehension, and copying a drawing. […]
# Each patient participated in a 3-week screening period, a 12-week double-blind treatment period, and a 4-week follow-up period. […] The safety of subjects was assessed by monitoring adverse events, physical examinations, vital signs, clinical laboratory tests (hematology, clinical chemistry, and urinalysis), and electrocardiograms. Furthermore cognitive status was assessed via MMSE.
smiles,measurement,setting,value
"CC(C)COc1ccc(CNC(=O)N(Cc2ccc(F)cc2)C2CCN(C)CC2)cc1 [Pimavanserin, N-(1-methylpiperidin-4-yl)-N-(4-fluorophenylmethyl)-N′-(4-(2-methylpropyloxy)phenylmethyl)carbamide]",attenuation of hyperactivity induced by MK-801,[1],active
same,tolerability and safety profile,ADP patients [2],safe and well tolerated
same,tolerability and safety profile,ADP patients [2]; listed as pimavanserin,well tolerated
same,effect on cognitive function or motor functions,ADP patients [2]; pimavanserin arm (same in placebo arm),no negative effect on cognitive function or motor functions
same,adverse event: falls,"ADP patients [2]; pimavanserin arm, placebo arm 23.1%",23.3%
same,adverse event: urinary tract infection,"ADP patients [2]; pimavanserin arm, placebo arm 27.5%",22.2%
same,activity in DOI induced head twitches,[3],active
same,cognition as measured by the Mini-Mental State Examination (MMSE) score,ADP patients [4],did not impair cognition
